In patent US7473760B2, “Cyclic peptide compositions for treatment of sexual dysfunction” (Palatin Technologies, Inc., priority 1999, dated 2009):

Columns and labels:
male Sprague-Dawley rats = assay: Induction of penile erections in male rats; type: in vivo, rat; details: 3 μg/kg intravenous; male rats observed 30 minutes
Protocol: Male Sprague-Dawley rats weighing 200-250 g were kept on a 12 hour on/off light cycle with food and water ad libitum. All behavioral studies were performed between 10 a.m. and 5 p.m. Groups of 6 rats were treated with peptides at a variety of doses, primarily 3 μg/kg, via intravenous administration. Immediately after administration, rats were placed into individual polystyrene cages (27 cm long, 16 cm wide, and 25 cm high) for behavioral observation. […] Using the above procedure, the mean number of penile erections for each rat on intravenous administration of 3 μg/kg was determined as shown on Table 2.

hMC3-R = molecular target: T1, hMC3-R (Homo sapiens, UniProt P41968); assay: Competitive inhibition binding assay with 125I-NDP-MSH, MC3-R; details: 1 μM peptide, HEK 293 human MC3, read-out: Percent Inhibition At 1 μM concentration MC3-R
T1 construct: expressed in transfected cells; host or cells: HEK 293 cells (membranes)
T1 sequence (P41968 whole entry): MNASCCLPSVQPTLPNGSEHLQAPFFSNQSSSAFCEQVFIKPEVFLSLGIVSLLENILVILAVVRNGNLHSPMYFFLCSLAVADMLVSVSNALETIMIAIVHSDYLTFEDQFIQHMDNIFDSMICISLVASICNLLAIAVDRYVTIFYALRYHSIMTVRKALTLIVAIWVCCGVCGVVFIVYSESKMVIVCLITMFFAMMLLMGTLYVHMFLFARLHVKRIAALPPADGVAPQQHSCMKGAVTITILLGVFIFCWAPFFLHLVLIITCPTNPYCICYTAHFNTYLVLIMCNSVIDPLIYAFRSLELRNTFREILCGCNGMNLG
Protocol: Each assay was conducted in triplicate.
(§1) B16-F1 mouse melanoma cells were used as the source of MC1 receptors; HEK 293 cells, transfected with human melanocortin receptor sequences, were used as the source of MC3, MC4 and MC5 receptors.

[1] = molecular target: MC1-R (B16-F1 mouse melanoma cells) (Mus musculus, UniProt Q01727); assay: Competitive inhibition binding assay with 125I-NDP-MSH, MC1-R; details: 1 μM peptide, B16-F1 mouse melanoma membranes, read-out: Percent Inhibition At 1 μM concentration MC1-R
Sequence of MC1-R (B16-F1 mouse melanoma cells) (Q01727 whole entry): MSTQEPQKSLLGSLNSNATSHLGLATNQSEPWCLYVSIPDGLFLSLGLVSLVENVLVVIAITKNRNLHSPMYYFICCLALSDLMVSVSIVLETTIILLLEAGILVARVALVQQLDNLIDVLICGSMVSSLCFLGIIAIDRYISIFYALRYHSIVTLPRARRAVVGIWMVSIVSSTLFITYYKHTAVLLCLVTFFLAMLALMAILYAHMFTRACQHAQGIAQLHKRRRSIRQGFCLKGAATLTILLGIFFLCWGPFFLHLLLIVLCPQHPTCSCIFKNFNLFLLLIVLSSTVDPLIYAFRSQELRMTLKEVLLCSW
Protocol: Each assay was conducted in triplicate.
as §1

hMC5-R = molecular target: T2, hMC5-R (Homo sapiens, UniProt P33032); assay: Competitive inhibition binding assay with 125I-NDP-MSH, MC5-R; details: 1 μM peptide, HEK 293 human MC5, read-out: Percent Inhibition At 1 μM concentration MC5-R
T2 construct: expressed in transfected cells; host or cells: HEK 293 cells (membranes)
T2 sequence (P33032 whole entry): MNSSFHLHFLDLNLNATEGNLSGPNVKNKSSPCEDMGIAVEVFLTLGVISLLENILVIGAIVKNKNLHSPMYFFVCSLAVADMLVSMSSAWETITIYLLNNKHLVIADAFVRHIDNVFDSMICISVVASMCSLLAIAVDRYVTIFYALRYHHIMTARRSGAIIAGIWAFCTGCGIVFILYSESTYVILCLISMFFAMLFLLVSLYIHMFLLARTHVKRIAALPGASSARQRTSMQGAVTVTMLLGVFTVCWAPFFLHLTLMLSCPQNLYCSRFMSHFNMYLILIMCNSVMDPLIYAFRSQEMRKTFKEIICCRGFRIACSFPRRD
Protocol: Each assay was conducted in triplicate.
as §1

hMC4-R [2] = molecular target: T3, hMC4-R (Homo sapiens, UniProt P32245); assay: Stimulation of intracellular cAMP production in transfected HEK-293 cells expressing hMC4-R; type: cell-based
T3 construct: expressed in transfected cells; whole cells for cAMP
T3 sequence (P32245 whole entry): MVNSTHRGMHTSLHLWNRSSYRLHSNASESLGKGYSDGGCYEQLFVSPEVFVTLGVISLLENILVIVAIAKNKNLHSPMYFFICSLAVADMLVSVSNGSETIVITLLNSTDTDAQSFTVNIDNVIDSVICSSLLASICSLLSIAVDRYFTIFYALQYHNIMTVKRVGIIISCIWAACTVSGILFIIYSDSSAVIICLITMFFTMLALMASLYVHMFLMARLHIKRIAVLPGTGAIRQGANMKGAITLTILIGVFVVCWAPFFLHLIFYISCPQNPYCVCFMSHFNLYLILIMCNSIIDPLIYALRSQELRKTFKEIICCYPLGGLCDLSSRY
Protocol: Functional assays to determine agonist or antagonist status of a cyclic peptide of the invention may be conducted by any means known in the art. In one method, a cAMP assay is performed. Human MC4-R cells are grown to confluence in 96 well plates (plating approximately 250,000 cells per well). Identical sets of cells in triplicate are treated with 0.2 mM isobutylmethylxanthine (IBMX) and the chosen concentration of the peptide or alternatively the peptide in the presence of 20 nM NDP-MSH. Cells similarly treated but with only 20 nM NDP-MSH serve as positive controls in a volume of 200 μL. A buffer blank, as a negative control, is also included. Incubation is for one hour at 37° C. after which the cells are lysed by the addition of 50 μL of a cell lysis buffer. Total cAMP accumulated in 250 μL of this solution is quantitated using a commercially available low pH cAMP assay kit (Amersham BioSciences) by the procedure specified by the kit supplier. Any peptide showing cAMP accumulation in the same range as or higher than the positive control (buffer blank in the presence of α-MSH) is considered to be an agonist. A peptide showing accumulation in the same range as the negative control (buffer blank in the absence of α-MSH) is ineffective at the test concentration if the result is similar to the positive control where α-MSH is also present in the assay. A peptide showing accumulation in the same range as the negative control is considered to be an antagonist if there is inhibition in cAMP when α-MSH is present in the assay. Similar methods may be employed for MC3-R, using MC3-R cells.

hMC4-R [3] = molecular target: T3, hMC4-R; assay: Competitive inhibition binding assay with 125I-NDP-MSH, MC4-R; details: 1 μM peptide, HEK 293 human MC4, read-out: Percent Inhibition At 1 μM concentration MC4-R
Protocol: Each assay was conducted in triplicate.
as §1

[4] = system: men with psychogenic erectile dysfunction; details: subcutaneous, 0.025 to 0.157 mg/kg, cited from earlier work

Compound | Mean PE/Rat (mean number of penile erections for each rat) (male Sprague-Dawley rats) | further results
CCCC[C@H](NC(C)=O)C(=O)N[C@H]1CC(=O)NCCCC[C@@H](C(=O)O)NC(=O)[C@H](Cc2c[nH]c3ccccc23)NC(=O)[C@H](CCCCN)NC(=O)[C@@H](Cc2ccccc2)NC(=O)[C@H](Cc2c[nH]cn2)NC1=O [Ac-Nle-cyclo(-Asp-His-D-Phe-Lys-Trp-Lys)-OH] | 1.33 | inhibition at 1 µM (hMC3-R): 8%; inhibition at 1 µM [1]: 86%; inhibition at 1 µM (hMC5-R): 17%; Functional Activity at MC4-R (hMC4-R [2]): Agonist; inhibition at 1 µM (hMC4-R [3]): 46%
Ac-Nle-cyclo(-Asp-D-His-D-Phe-Arg-Trp-Lys)-OH | 0.33 | –
Ac-Nle-cyclo(-Asp-His-D-Phe(4-Cl)-Arg-Trp-Lys)-OH | 0.33 | –
Ac-Nle-cyclo(-Asp-His-D-Phe-Arg-D-Trp-Lys)-OH | 0.83 | –
Ac-Nle-cyclo(-Asp-His-D-Phe-Arg-Nal 1-Lys)-OH | 0.33 | –
Ac-Nle-cyclo(-Asp-His-Phe-Arg-Trp-Lys)-OH | – | Functional Activity at MC4-R (hMC4-R [2]): Inactive
Ac-Nle-cyclo(-Asp-Phe-D-Phe-Arg-Trp-Lys)-OH | 0.33 | –
Ac-Nle-cyclo(-Asp-Trp-D-Phe-Arg-Trp-Lys)-OH | 0.5 | –
Ac-Nle-cyclo(-Asp-Tyr-D-Phe-Arg-Trp-Lys)-OH | 0.67 | –
Ahx-cyclo(-Asp-His-D-Phe-Arg-Trp-Lys)-OH | 0.33 | –
Melanotan-II | – | transient side effects [4]: nausea, stretching and yawning, and decreased appetite; mean duration of tip rigidity greater than 80% ([4]; placebo 3.0 minutes, p=0.0045): 38 min
cyclo(-Succ-His-D-Phe-Arg-Trp-Lys)-OH (FRWK; cyclic succinyl, His, D-residue prefix; printed: Phe-Arg-Trp-Lys) | – | Functional Activity at MC4-R (hMC4-R [2]): Agonist
